According to BindingDB's records for doi:10.1016/0960-894X(95)00135-G (1995):

Assay: In vitro inhibitory activity against human neutrophil leukotriene B4 (LTB4) induced Chemotaxis

First: CC(Oc1ccc2c(c1)OC[C@@H](Cc1ccccn1)[C@@H]2O)c1ccc2ccccc2n1 (stereo partly drawn) [(3R,4S)-3-Pyridin-2-ylmethyl-7-(1-quinolin-2-yl-ethoxy)-chroman-4-ol]
Second: CC(Oc1ccc2c(c1)OC[C@H](Cc1ccccn1)[C@@H]2O)c1ccc2ccccc2n1 (stereo partly drawn) [(3S,4S)-3-Pyridin-2-ylmethyl-7-(1-quinolin-2-yl-ethoxy)-chroman-4-ol]
The IC50 of the first is 64-fold lower: 0.22 µM for the first, 14 µM for the second.

Going from `C[C@@H](Oc1ccc2c(c1)OC[C@@H](Cc1cccnc1)[C@@H]2O)c1ccc2ccccc2n1` [(3R,4S)-3-Pyridin-3-ylmethyl-7-((R)-1-quinolin-2-yl-ethoxy)-chroman-4-ol] to `C[C@H](Oc1ccc2c(c1)OC[C@@H](Cc1cccnc1)[C@@H]2O)c1ccc2ccccc2n1` [(3R,4S)-3-Pyridin-3-ylmethyl-7-((S)-1-quinolin-2-yl-ethoxy)-chroman-4-ol], the IC50 rises from 3.4 µM to 6.1 µM (1.8-fold).

In the case of `CC(Oc1ccc2c(c1)OC[C@H](Cc1cccnc1)[C@@H]2O)c1ccc2ccccc2n1` (stereo partly drawn) [(3S,4S)-3-Pyridin-3-ylmethyl-7-(1-quinolin-2-yl-ethoxy)-chroman-4-ol], the IC50 is reported as 38 µM.
